Earlier results as cited in patent US12686008B2, “Microfluidic device having specifically designed detection chambers” (Bifrost Biosystems Inc., priority 2020, dated 2026).
Where no end group is shown, it is not given here.

Conditions: literature values, refs [18, 19]; test organism not given

Substance	MIC
VDKPPYLPRPRPPRRIYNR-NH2 [Oncocin]	0.42 µmol/L
LL-37	1.5 µmol/L
